Assay results reported in ChEMBL document CHEMBL1130901, “Halohydrin analogues of cryptophycin 1: synthesis and biological activity” (Bioorg Med Chem Lett, 1998).

How the values were obtained:
[1] = Half life in PEM buffer at pH 7.4; type: ADME
[2] = Half life in phosphate buffer at pH 7.4; type: ADME
[3] = Tested in vitro for the concentration that reduces the amount of pelleted protein by 50% in microtubule assembly assay.; type: functional

Work on `COc1ccc(C[C@H]2NC(=O)/C=C/C[C@@H]([C@H](C)[C@@H](O)[C@@H](Br)c3ccccc3)OC(=O)[C@H](CC(C)C)OC(=O)[C@H](C)CNC2=O)cc1Cl` yielded a half-life [1] of 3.7 min and a half-life [2] of 11 min.
Molecule `COc1ccc(C[C@H]2NC(=O)/C=C/C[C@@H]([C@H](C)[C@@H](O)[C@@H](Cl)c3ccccc3)OC(=O)[C@H](CC(C)C)OC(=O)[C@H](C)CNC2=O)cc1Cl` has a half-life [1] of 75 min, a half-life [2] of 660 min and an ED50 [3] of 7.5 mM.
With `COc1ccc(C[C@H]2NC(=O)/C=C/C[C@@H]([C@H](C)[C@@H](O)[C@@H](I)c3ccccc3)OC(=O)[C@H](CC(C)C)OC(=O)[C@H](C)CNC2=O)cc1Cl` the half-life [1] was < 1 min and the half-life [2] was 2.5 min.
